Here are results for six molecules from patent publication US7741493B2, “Heterocyclic compounds as P2X7 ion channel blockers” (Aventis Pharmaceuticals Inc., priority 2003, dated 2010).

Counter-ions that a name gives are not always drawn.

Test [1] concerns the target T1, P2X7 (Homo sapiens, UniProt Q99572).
T1 sequence (Q99572 1-595): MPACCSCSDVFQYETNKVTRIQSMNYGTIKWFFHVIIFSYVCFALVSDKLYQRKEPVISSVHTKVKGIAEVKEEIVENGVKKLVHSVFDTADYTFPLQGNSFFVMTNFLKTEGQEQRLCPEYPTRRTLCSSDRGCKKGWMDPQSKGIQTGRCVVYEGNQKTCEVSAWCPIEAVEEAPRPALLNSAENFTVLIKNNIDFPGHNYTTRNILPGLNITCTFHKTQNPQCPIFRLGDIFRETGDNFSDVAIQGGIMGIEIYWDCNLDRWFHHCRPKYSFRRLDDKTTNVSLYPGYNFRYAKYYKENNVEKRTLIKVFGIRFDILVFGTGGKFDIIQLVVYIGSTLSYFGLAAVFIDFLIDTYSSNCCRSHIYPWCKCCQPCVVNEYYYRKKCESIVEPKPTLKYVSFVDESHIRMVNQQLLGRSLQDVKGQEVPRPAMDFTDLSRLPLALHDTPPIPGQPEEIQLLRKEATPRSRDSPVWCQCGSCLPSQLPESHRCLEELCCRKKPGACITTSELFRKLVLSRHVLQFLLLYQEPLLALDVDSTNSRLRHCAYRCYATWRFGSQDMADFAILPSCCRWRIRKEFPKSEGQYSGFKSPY
Kind of test: YO-PRO-1 dye uptake assay in U373 cells stably expressing P2X7. The arrangement: The complete open reading frame of human P2X7 was amplified from Incyte clone 148057; expressed in transfected cells. Format: cell-based. The following applies: dye uptake through P2X7, U373 cells, 300 μM BzATP, 5 μM YO-PRO-1, test compounds 30 nM to 3 μM; read-out: IC50. An outline of the steps:
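U373 cells stably expressing human P2X7 preincubated 20 min at 37° C. with compound (30 nM to 3 μM) in Mg/Ca-free HBSS. YO-PRO-1 (5 μM final) and BzATP (300 μM final) then added for 1.5 h at 37° C.; dye-uptake fluorescence compared with compound-free control.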

Test [2] concerns the target T1, P2X7. Kind of test: BzATP-induced IL-1β secretion from human monocytes/macrophages activated by beta amyloid peptide 1-42 (ELISA). Format: cell-based. The arrangement: Monocytes were isolated from peripheral blood mononuclear cells (PBMCs); endogenous in cells; host or cells: primary monocytes isolated from peripheral blood mononuclear cells. The method, then: Cell isolation: Monocytes were isolated from peripheral blood mononuclear cells (PBMCs) as follows. Whole blood was layered directly onto Histopak 1077-1 columns (Sigma Biochemicals) and centrifuged at 800×g for 15 minutes. The PBMC band of cells was removed to a fresh 50 ml culture tube and diluted 1:1 with wash buffer (Phosphate buffered saline, pH 7.4 containing 2 mM EDTA and 5 mg/ml BSA) followed by centrifugation at 800×g for 5 minutes. Cells were then washed by sequential resuspension of the cell pellet in wash buffer and centrifugation at 600×g for 5 minutes. The wash process was repeated until the supernatant was clear of contaminating platelets (5 to 6 washes). Monocytes were then purified from the PBMCs by negative selection using a monocyte isolation kit (Miltenyi Biotec, Inc) that contains antibodies to non-monocytic cells, running the cells over a magnetic column to remove antibody-bound cells, and collecting the flow through volume of monocytes. Monocytes were washed once with wash buffer and seeded at 10E5 cells per well in 100 μl serum-free RPMI 1640 in 96-well plates and incubated for 1 hour at 37° C. in a 5% CO2/95% humidified tissue culture incubator. After 1 hour, the medium was replaced with 100 μl complete culture medium (RPMI 1640, 10% human serum-type AB (heat inactivated), 25 mM HEPES, 2 mM glutamine, 50 U/ml each of penicillin and streptomycin) and incubated overnight (16 hours). Dosing regimen: The next day, the culture medium was replaced with 100 μl fresh complete culture medium in the absence or presence of human beta amyloid 1-42 peptide (5 μM) and incubated at 37° C. in a 5% CO2/95% humidified tissue culture incubator for 5 hours. Medium was then removed and discarded. Each well was washed once with Hanks buffered saline (HBSS) containing 1 mM CaCl2 followed by the addition of 80 μl of HBSS/CaCl2. […] Medium was then removed to new 96-well plates for storage at −70° C. until the IL-1β content was quantitated by ELISA (from R&D Systems). The cells were washed once with HBSS/CaCl2 followed by lysing the cells with 100 μl ice cold lysis buffer (100 mM Tris, pH 7.6, 1% triton X-100, and 1 tablet per 30 ml Complete TM protease inhibitor from Roche Biochemicals, Inc). Cell lysates were stored at −70° C. until the IL-1β was quantitated by ELISA. The results thus obtained for percent inhibition of BzATP-induced IL-1β secretion using a few of the P2X-7 compounds of the present invention are summarized in Table 7.
On the technique in general: An ELISA detects its analyte on a solid surface through an enzyme-linked reagent.

For test [3], the system named is Long Evans derived male rats. Kind of test: carrageenan induced paw edema. Format: in vivo, rat. The conditions noted are these: 150 mg/kg, PO. A general note: The carrageenan paw model is a standard test of acute inflammation.
The next test deals with Wistar derived male rats. Kind of test: 2,4-dinitrobenzenesulfonic acid (DNBS) induced distal colitis. The conditions noted are these: 30 mg/kg×7, oral administration. Format: in vivo, rat.
Where [4] appears, read: BzATP (300 μM)-induced IL-1β secretion, human monocytes primed with beta amyloid 1-42 (5 μM), read-out: IC50.

By IC50 is commonly meant the midpoint of a concentration-inhibition curve. As to `Fc1cccc(CNC2=N[C@@H](c3cccc(F)c3)[C@@H](c3cccc(F)c3)N2)c1` [[cis-4,5-bis-(3-Fluorophenyl)-4,5-dihydro-1H-imidazol-2-yl]-(3-fluorobenzyl)amine hydrochloride], the IC50 at P2X7 [1] amounted to 0.042 µM; on P2X7 [2], 1.28 µM.

On to `CC(=O)Oc1ccccc1C(=O)O` [aspirin], for which the “inhibition of inflammation (hind paw edema)” value in test [3] is 38%.

For the molecule `Fc1ccc(CNC2=NC(c3ccccc3)C(c3ccccc3)N2)cc1` (centres unmarked) [hydrochloride], at P2X7 [2] (setting [4]), the IC50 worked out at 0.693 µM.

As to `O=C(O)c1cc(/N=N/c2ccc(S(=O)(=O)Nc3ccccn3)cc2)ccc1O` [sulfasalazine], in the test on Wistar derived male rats, the “inhibition of the inflammation” value amounted to 37%.

Take `CC(C)(CC1=NC(c2ccccc2)C(c2ccccc2)N1)c1ccccc1` (centres unmarked) [trifluoroacetate]: at P2X7 [2] (setting [4]), the IC50 is 0.178 µM.

With `Fc1ccc(CC2=N[C@@H](c3ccccc3)[C@@H](c3ccccc3)N2)cc1Cl` [trifluoroacetate], the IC50 on P2X7 [1] came out at 0.013 µM; on P2X7 [2] (setting [4]), 0.157 µM.
